Each molecule was assayed on hSIRT1 promoter (assay: Screening for SIRT1 enhancing polyphenol or terpenoid: hSIRT1 promoter activity (EGFP fluorescence) in Caco-2-hSIRT1p-EGFP cells). Conditions: 10 μM, 2 days after addition, relative ratio to control (PBS), FIG. 1.
Type: cell-based, human
From the text: First, the promoter region (−1593 to −1 bp) of hSIRT1 (human SIRT1) was acquired using the LA-PCR method using, as a template, a human genome DNA extracted from TIG-1 cells (obtained from Institute of Development, Aging and Cancer, Tohoku University), with primers synthesized based on reported information of the hSIRT1 genomic sequence so as to synthesize primers having added AseI and NheI recognition sequences at their respective ends (hSIRT1p-AseI (SEQ ID NO: 1) and hSIRT1p-NheI (SEQ ID NO: 2)). The PCR reaction condition was at 94° C. for 1 minute, followed by at 98° C. for 20 seconds; and at 68° C. for 2 minutes, 34 cycles; and then at 72° C. for 10 minutes for extension reaction. LA-Taq from Takara Shuzo Co., Ltd. was used as the TaqDNApolymerase. The primers were synthesized by Nippon EGT based on our request.
The hSIRT1 promoter fragment obtained by the LA-PCR was subjected to TA cloning using a pGEM-T Easy vector (manufactured by Promega KK). Furthermore, the base sequence thereof was confirmed by sequencing. The hSIRT1 promoter fragment, inserted into the pGEM-T Easy vector, was cut out by digestion with the restriction enzymes AseI and NheI, and the CMV promoter of a pEGFP-C3 (manufactured by Takara Bio Inc.) was removed by digestion with AseI and NheI in a similar manner, and the hSIRT1 promoter fragment was inserted into that removed site, so that phSIRT1p-EGFP was obtained.
Transfection was performed using a LIPOFECT AMINE 2000 REAGENT (manufactured by Life Technologies) according to its protocol. On the day before the transfection, Caco-2 cells (human colonic cancer-derived cells obtained from Riken BioResource Center) were plated at 1.0×10^6 in a 10-mL dish. On the day of the transfection, phSIRT1p-EGFP (10 μg) was diluted in a serum-free OPTI-MEM medium to a volume of 750 μL, after which 15 μL of LIPOFECT AMINE Reagent was diluted in a serum-free OPTI-MEM medium to […], and they were incubated at room temperature for 5 minutes. The transfection using the LIPOFECT AMINE Reagent was performed in the absence of serum, during which the culture medium of the Caco-2 cells plated on the previous day was removed, and was replaced by 5 mL of serum-free OPTI-MEM medium. After 30 minutes of this, 1.5 mL of DNA-LIPOFECT AMINE 2000 mixture was added to each 10-mL dish. After the addition, the dish was gently shaken to mix the DNA-LIPOFECT AMINE and the OPTI-MEM. After the culture for 3 hours, the DNA-LIPOFECT AMINE mixture solution was removed, and the medium was replaced by a serum-containing culture medium. Subsequently, culture was performed under the environment at 5% CO2/95% air and 37° C. for 21 hours, and the culture medium was replaced by a new one.
Since phSIRT1p-EGFP is resistant to the drug G418, the drug G418 was added to the transfected cells to 70 μg/mL to subject them to the drug selection for a week. The culture medium was replaced by a new one every three days, and G418 was added every time at the same concentration. Accordingly, Caco-2-hSIRT1p-EGFP cells were obtained.
Caco-2-hSIRT1p-EGFP cells were plated at 0.6×10^4 cells/well in a 96-well plate. On the next day, 10 μM polyphenol or terpenoid, or control (PBS) was added to each well. At 2 days after the addition, the culture solution was aspirated, after which 100 μL of 4% paraformaldehyde was added to each well, and the plate was allowed to stand at room temperature for 10 minutes. After the plate was allowed to stand for 10 minutes, 4% paraformaldehyde was aspirated, 100 μL of Cellstain (registered trademark)-Hoechst 33342 solution (Dojindo) diluted 1/500 with PBS was added to each well, and the plate was allowed to stand at room temperature in the dark for 15 minutes and the solution was then aspirated. Then, 100 μL of PBS was added to each well, and the fluorescence intensity was measured using an IN Cell Analyzer 1000 (GE Healthcare, Amersham Place, UK). The promoter activity was represented by a relative ratio to the activity of the control.
`O=C1OC[C@H]2OC(O)[C@H](O)[C@@H](O)[C@@H]2OC(=O)c2cc(O)c(O)c(O)c2-c2c(O)c(O)c3oc(=O)c4c(c(O)c(O)c5oc(=O)c2c3c54)-c2c1cc(O)c(O)c2O` (mixture of isomers) [punicalin] was tested, and the “relative hSIRT1 promoter activity” value was “particularly strong hSIRT1 promoter enhancing activity”. For `C[C@@]12C=Cc3occc3[C@H]1CC[C@@]13C[C@@H](CC[C@H]12)[C@@](O)(CO)C3` [kahweol], the “relative hSIRT1 promoter activity” value was “particularly strong hSIRT1 promoter enhancing activity”. In the case of `O=c1oc2cc(O)ccc2c2ccc(O)cc12` [urolithin A], the “relative hSIRT1 promoter activity” value is reported as “particularly strong hSIRT1 promoter enhancing activity”. `O=c1c(O)c(-c2ccc(O)c(O)c2)oc2cc(O)ccc12` [fisetin] was tested, and the “relative hSIRT1 promoter activity” value was “particularly strong hSIRT1 promoter enhancing activity”. With `O=C1O[C@H]2[C@@H]3OC(=O)c4cc(O)c(O)c(O)c4-c4c(O)c(O)c5oc(=O)c6c(c(O)c(O)c7oc(=O)c4c5c76)-c4c(cc(O)c(O)c4O)C(=O)OC[C@H]3OC(O)[C@@H]2OC(=O)c2cc(O)c(O)c(O)c2-c2c1cc(O)c(O)c2O` (mixture of isomers) [punicalagin] the “relative hSIRT1 promoter activity” value was “particularly strong hSIRT1 promoter enhancing activity”.
